Results published in paper PMC11859264, “Discovery of a Novel Multitarget Analgesic Through an In Vivo-Guided Approach” (Pharmaceuticals, 2025).

Legend:
Adrenergic α2A = target: T1, Adrenergic α2A (Homo sapiens, UniProt P08913); assay: Radioligand binding, [3H] Rauwolscine, Eurofins; conditions: Adrenergic α2A
T1 sequence (P08913 1-465): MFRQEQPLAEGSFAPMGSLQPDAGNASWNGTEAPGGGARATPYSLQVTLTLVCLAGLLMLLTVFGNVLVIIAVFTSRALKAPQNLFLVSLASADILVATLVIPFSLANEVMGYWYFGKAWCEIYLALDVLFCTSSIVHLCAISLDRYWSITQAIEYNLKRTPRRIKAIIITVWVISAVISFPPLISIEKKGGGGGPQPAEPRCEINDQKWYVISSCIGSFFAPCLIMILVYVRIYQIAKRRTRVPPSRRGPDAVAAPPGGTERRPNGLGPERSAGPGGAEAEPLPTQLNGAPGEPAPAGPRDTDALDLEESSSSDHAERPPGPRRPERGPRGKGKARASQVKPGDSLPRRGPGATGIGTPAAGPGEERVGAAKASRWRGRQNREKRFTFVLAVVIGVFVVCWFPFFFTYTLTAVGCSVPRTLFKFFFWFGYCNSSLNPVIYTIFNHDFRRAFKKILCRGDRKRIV

[1] = target: T2, Transporter, Dopamine (DAT) (Homo sapiens, UniProt Q01959); assay: Radioligand binding, [125I] RTI-55, Eurofins; conditions: DAT
T2 construct: host or cells: CHO-S cells
T2 sequence (Q01959 whole entry): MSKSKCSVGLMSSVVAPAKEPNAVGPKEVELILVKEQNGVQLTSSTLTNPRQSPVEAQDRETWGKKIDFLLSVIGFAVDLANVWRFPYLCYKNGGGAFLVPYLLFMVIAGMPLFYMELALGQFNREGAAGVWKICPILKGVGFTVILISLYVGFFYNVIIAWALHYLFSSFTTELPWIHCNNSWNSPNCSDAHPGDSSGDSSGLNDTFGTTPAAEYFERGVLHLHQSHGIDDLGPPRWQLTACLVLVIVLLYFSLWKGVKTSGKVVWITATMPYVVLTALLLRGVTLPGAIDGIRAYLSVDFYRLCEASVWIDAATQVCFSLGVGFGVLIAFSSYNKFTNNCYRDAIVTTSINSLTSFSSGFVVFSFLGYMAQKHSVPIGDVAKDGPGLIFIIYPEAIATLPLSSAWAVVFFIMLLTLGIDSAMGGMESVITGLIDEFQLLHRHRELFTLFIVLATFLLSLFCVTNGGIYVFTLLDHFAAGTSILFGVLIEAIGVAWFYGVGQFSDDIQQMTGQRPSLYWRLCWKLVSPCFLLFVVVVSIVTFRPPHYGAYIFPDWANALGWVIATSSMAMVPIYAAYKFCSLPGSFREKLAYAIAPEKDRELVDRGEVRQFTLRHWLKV

Serotonin 5-HT2A = Serotonin 5-HT2A (Homo sapiens, UniProt P28223); assay: Radioligand binding, [3H] Ketanserin, Eurofins; conditions: Serotonin 5-HT2A
Serotonin 5-HT2A, sequence (P28223 whole entry): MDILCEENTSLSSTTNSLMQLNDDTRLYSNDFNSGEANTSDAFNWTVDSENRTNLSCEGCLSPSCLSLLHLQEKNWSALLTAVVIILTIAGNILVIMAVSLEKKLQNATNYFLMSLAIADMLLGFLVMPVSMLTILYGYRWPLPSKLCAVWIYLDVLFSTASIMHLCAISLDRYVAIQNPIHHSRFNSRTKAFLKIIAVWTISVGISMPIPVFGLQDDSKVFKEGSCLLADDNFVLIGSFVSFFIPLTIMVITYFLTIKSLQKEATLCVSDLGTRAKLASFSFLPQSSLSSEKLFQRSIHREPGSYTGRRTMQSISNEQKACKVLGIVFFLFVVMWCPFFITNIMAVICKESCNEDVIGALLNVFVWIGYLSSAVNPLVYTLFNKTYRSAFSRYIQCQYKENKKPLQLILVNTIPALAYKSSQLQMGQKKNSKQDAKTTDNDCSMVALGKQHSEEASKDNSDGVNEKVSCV

Dopamine D2L = target: T3, Dopamine D2L (Homo sapiens, UniProt P14416); assay: Radioligand binding, [3H] Spiperone, Eurofins; conditions: Dopamine D2L
T3 construct: host or cells: CHO cells
T3 sequence (P14416 whole entry): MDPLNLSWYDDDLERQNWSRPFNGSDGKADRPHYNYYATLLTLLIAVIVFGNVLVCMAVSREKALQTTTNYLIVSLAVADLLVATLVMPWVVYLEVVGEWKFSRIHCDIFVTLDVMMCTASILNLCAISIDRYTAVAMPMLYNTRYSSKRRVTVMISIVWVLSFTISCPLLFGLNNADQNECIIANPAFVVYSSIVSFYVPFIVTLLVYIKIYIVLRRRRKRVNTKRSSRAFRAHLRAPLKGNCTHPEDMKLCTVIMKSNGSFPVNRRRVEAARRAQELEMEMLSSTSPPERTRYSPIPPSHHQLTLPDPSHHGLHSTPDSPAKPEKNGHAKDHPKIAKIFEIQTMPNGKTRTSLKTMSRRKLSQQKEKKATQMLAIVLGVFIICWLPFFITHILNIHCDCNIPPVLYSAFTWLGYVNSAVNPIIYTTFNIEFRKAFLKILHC

CYP2C9 = CYP2C9 (Homo sapiens, UniProt P11712); assay: Cytochrome P450 (CYP) inhibition assay; conditions: microsomes, pH 7.4
CYP2C9, sequence (P11712 whole entry): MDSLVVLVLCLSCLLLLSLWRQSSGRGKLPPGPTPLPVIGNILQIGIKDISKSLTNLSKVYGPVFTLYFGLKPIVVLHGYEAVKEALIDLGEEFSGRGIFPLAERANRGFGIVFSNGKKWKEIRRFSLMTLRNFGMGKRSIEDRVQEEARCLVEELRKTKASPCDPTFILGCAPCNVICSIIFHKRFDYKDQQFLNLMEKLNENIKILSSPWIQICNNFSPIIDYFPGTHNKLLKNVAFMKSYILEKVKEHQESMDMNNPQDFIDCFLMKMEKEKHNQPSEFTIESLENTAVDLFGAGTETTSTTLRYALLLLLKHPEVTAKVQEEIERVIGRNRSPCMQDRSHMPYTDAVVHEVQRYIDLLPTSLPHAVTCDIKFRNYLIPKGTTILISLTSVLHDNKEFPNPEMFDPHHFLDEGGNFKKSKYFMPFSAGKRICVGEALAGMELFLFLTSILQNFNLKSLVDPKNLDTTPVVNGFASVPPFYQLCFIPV

CYP2C19 = CYP2C19 (Homo sapiens, UniProt P33261); assay: Cytochrome P450 (CYP) inhibition assay; conditions: microsomes, pH 7.4
CYP2C19, sequence (P33261 whole entry): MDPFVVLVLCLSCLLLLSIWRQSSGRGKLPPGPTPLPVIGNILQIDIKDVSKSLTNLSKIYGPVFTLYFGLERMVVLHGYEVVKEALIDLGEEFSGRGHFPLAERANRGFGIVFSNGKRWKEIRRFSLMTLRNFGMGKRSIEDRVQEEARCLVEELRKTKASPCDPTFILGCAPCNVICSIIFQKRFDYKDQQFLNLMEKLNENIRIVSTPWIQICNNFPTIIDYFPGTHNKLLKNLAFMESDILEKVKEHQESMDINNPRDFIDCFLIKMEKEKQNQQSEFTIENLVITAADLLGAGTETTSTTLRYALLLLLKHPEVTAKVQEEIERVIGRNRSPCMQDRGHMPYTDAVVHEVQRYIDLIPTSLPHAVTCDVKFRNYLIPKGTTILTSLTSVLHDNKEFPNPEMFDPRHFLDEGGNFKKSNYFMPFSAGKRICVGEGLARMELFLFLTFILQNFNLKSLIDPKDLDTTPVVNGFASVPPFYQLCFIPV

CYP3A4 = CYP3A4 (Homo sapiens, UniProt P08684); assay: Cytochrome P450 (CYP) inhibition assay; conditions: microsomes, pH 7.4
CYP3A4, sequence (P08684 whole entry): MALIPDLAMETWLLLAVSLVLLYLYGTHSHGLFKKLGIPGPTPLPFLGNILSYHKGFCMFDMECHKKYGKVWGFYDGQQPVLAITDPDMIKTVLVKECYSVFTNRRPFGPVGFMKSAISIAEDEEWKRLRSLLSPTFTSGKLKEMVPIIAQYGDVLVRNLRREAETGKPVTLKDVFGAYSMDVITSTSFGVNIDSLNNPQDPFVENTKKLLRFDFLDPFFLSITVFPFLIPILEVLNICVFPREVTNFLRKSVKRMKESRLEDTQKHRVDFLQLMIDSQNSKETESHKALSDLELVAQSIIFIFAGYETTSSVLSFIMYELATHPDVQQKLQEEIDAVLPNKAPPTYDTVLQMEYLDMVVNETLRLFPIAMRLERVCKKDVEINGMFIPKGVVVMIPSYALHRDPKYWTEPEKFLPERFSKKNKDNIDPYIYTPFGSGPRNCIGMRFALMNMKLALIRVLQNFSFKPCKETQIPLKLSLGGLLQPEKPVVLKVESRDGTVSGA

In the case of `COC(=O)[C@@H]1[C@H]2C[C@H]3c4[nH]c5ccccc5c4CCN3C[C@@H]2CC[C@@H]1O` [Yohimbine, reference compound], the “nH (Hill coefficient)” value (Adrenergic α2A) is reported as 0.88.

In the case of `Fc1ccc(C(OCCN2CCN(CCCc3ccccc3)CC2)c2ccc(F)cc2)cc1` [Vanoxerine, reference compound], the “nH (Hill coefficient)” value [1] is reported as 1.01.

For `O=C(c1ccc(F)cc1)C1CCN(CCn2c(=O)[nH]c3ccccc3c2=O)CC1` [Ketanserin, reference compound], the “nH (Hill coefficient)” value (Serotonin 5-HT2A) was 0.99.

`O=C(CCCN1CCC2(CC1)C(=O)NCN2c1ccccc1)c1ccc(F)cc1` [Spiperone, reference compound] was tested, and the “nH (Hill coefficient)” value (Dopamine D2L) was 0.71.

`CC(=O)N1CCN(c2ccc(OCC3COC(Cn4ccnc4)(c4ccc(Cl)cc4Cl)O3)cc2)CC1` (stereo not shown) [Ketoconazole] gave an inhibition at 15 min, 0.1 µM (CYP2C9) of 3.2%, an inhibition at 15 min, 0.1 µM (CYP2C19) of 0% and an inhibition at 15 min, 0.1 µM (CYP3A4) of 68%.
